{
  "source": "patent US4493785A",
  "about": "“Anthraquinone compounds” (Imperial Chemical Industries PLC, priority 1982, dated 1985)",
  "type_in_all_cases": "physicochemical",
  "key": {"[1]": {"test": "Order parameter (S) of the dye in liquid crystal material", "conditions": "for Order Parameter (S): liquid crystal material E 43, 20° C.", "procedure": "(§1) (i) Order parameters, solubilities and stabilities reported in Tables I to V were measured in the liquid crystal material, E 43, which is referred to as Host B in UK Specification No. 2081736A and is available from BDH Ltd of Poole, Dorset. Measurements were made at 20° C. unless otherwise indicated.\n(§2) (iii) The liquid crystal materials in Table V are:\n(§3) ZLI 1695: Available from E. Merck Co, Darmstadt, W. Germany;\n(§4) FBCO Ester: Host 12 of UK application No. 8205153.\n(§5) (iv) In Table V \"S\" means order parameter and \"Sol\" means solubility (wt %) in the appropriate liquid crystal material."}, "[2]": {"test": "Solubility (wt %) of the dye in liquid crystal material", "conditions": "for Solubility: liquid crystal material E 43, 20° C.", "procedure": "as §1, §2, §3, §4, §5"}, "[3]": {"test": "Stability to irradiation with 1 kW phosphor-coated mercury vapour lamp", "conditions": "E 43, 1 kW mercury vapour lamp, 30° C.", "procedure": "as §1\n(ii) Stabilities were measured as the percentage decrease in absorption at the absorption maximum after the indicated period of irradiation with a 1 kW phosphor-coated, mercury vapour lamp at 30° C."}, "Extinction coefficient": {"test": "Extinction coefficient"}, "[4]": {"conditions": "liquid crystal material FBCO Ester, 20° C."}, "[5]": {"conditions": "liquid crystal material ZLI 1132, 20° C."}, "[6]": {"conditions": "liquid crystal material ZLI 1695, 20° C."}},
  "data": [
    {"smiles": "CC(CCCc1cc(N)c2c(c1O)C(=O)c1c(O)c(CCCC(C)CC(C)(C)C)cc(N)c1C2=O)CC(C)(C)C", "note": "(centres unmarked) [--C2 H4 CH(CH3)CH2 C(CH3)3, reference compound]", "values": [
      {"measurement": "Order Parameter (S)", "setting": "[1]", "value": 0.71},
      {"measurement": "Solubility", "setting": "[2]", "value": 1.6, "unit": "wt %"}
    ]},
    {"smiles": "CCC(CC)Cc1cc(N)c2c(c1O)C(=O)c1c(O)c(CC(CC)CC)cc(N)c1C2=O", "note": "[--CH(C2 H5)2]", "values": [
      {"measurement": "Order Parameter (S)", "setting": "[1]", "value": 0.66}
    ]},
    {"smiles": "CCC(C)Cc1cc(N)c2c(c1O)C(=O)c1c(O)c(CC(C)CC)cc(N)c1C2=O", "note": "(centres unmarked) [--CH(CH3)CH2 CH3]", "values": [
      {"measurement": "Order Parameter (S)", "setting": "[1]", "value": 0.68}
    ]},
    {"smiles": "CCCCCc1cc(N)c2c(c1O)C(=O)c1c(O)c(CCCCC)cc(N)c1C2=O", "note": "[Example 1c, 2,7-Di-n-pentyl-4,5-diamino-chrysazin]", "values": [
      {"measurement": "Order Parameter (S)", "setting": "[1]", "value": 0.77},
      {"measurement": "S (order parameter)", "setting": "[1]; [4]", "value": 0.69},
      {"measurement": "S (order parameter)", "setting": "[1]; [5]", "value": 0.77},
      {"measurement": "S (order parameter)", "setting": "[1]; [6]", "value": 0.79},
      {"measurement": "Solubility", "setting": "[2]", "value": 8.0, "unit": "wt %"},
      {"measurement": "Sol (solubility)", "setting": "[2]; [4]", "value": 3, "unit": "wt %"},
      {"measurement": "Sol (solubility)", "setting": "[2]; [5]", "value": 10.0, "unit": "wt %"},
      {"measurement": "Sol (solubility)", "setting": "[2]; [6]", "value": 6.5, "unit": "wt %"},
      {"measurement": "Stability (percentage decrease in absorption at the absorption maximum)", "setting": "[3]; 100 hr irradiation", "value": 97, "unit": "%"},
      {"measurement": "Stability (percentage decrease in absorption at the absorption maximum)", "setting": "[3]; 2000 hr irradiation", "value": 73, "unit": "%"}
    ]},
    {"smiles": "CCCCCCCc1cc(N)c2c(c1O)C(=O)c1c(O)c(CCCCCCC)cc(N)c1C2=O", "note": "[Example 2c, 2,7-Di-n-heptyl-4,5-diaminochrysazin]", "values": [
      {"measurement": "Order Parameter (S)", "setting": "[1]", "value": 0.78},
      {"measurement": "S (order parameter)", "setting": "[1]; [4]", "value": 0.70},
      {"measurement": "S (order parameter)", "setting": "[1]; [5]", "value": 0.78},
      {"measurement": "S (order parameter)", "setting": "[1]; [6]", "value": 0.80},
      {"measurement": "Solubility", "setting": "[2]", "value": 5.5, "unit": "wt %"},
      {"measurement": "Sol (solubility)", "setting": "[2]; [4]", "value": 3, "unit": "wt %"},
      {"measurement": "Sol (solubility)", "setting": "[2]; [5]", "value": 7.0, "unit": "wt %"},
      {"measurement": "Stability (percentage decrease in absorption at the absorption maximum)", "setting": "[3]; 400 hr irradiation", "value": 92, "unit": "%"},
      {"measurement": "Stability (percentage decrease in absorption at the absorption maximum)", "setting": "[3]; 2000 hr irradiation", "value": 87, "unit": "%"}
    ]},
    {"smiles": "CCCCCCc1cc(N)c2c(c1O)C(=O)c1c(O)c(CCCCCC)cc(N)c1C2=O", "note": "[Example 3, 2,7-Di-n-hexyl-4,5-diaminochrysazin]", "values": [
      {"measurement": "Order Parameter (S)", "setting": "[1]", "value": 0.76},
      {"measurement": "Solubility", "setting": "[2]", "value": 4.3, "unit": "wt %"}
    ]},
    {"smiles": "CCCCCCCCc1cc(N)c2c(c1O)C(=O)c1c(O)c(CCCCCCCC)cc(N)c1C2=O", "note": "[Example 4, 2,7-di-n-octyl-4,5-diaminochrysazin]", "values": [
      {"measurement": "Order Parameter (S)", "setting": "[1]", "value": 0.73},
      {"measurement": "Solubility", "setting": "[2]", "value": 13.0, "unit": "wt %"}
    ]},
    {"smiles": "CCCCCCCc1cc(N)c2c(c1O)C(=O)c1c(O)c(CCCCCCC)cc(NC)c1C2=O", "note": "[Example 5b, 2,7-di-n-heptyl-4-amino-5-methylaminochrysazin]", "values": [
      {"measurement": "Order Parameter (S)", "setting": "[1]", "value": 0.68},
      {"measurement": "Solubility", "setting": "[2]", "value": 0.5, "unit": "wt %"},
      {"measurement": "extinction coefficient", "setting": "Extinction coefficient; at 675 nm", "value": "19,522"}
    ]},
    {"smiles": "CCCCCCCc1cc(NC)c2c(c1O)C(=O)c1c(O)c(CCCCCCC)cc(NC)c1C2=O", "note": "[Example 5c, 2,7-di-n-heptyl-4,5-di(methylamino)chrysazin]", "values": [
      {"measurement": "Order Parameter (S)", "setting": "[1]", "value": 0.67},
      {"measurement": "Solubility", "setting": "[2]", "value": 0.5, "unit": "wt %"},
      {"measurement": "extinction coefficient", "setting": "Extinction coefficient; at 575 nm", "value": "22,100"}
    ]},
    {"smiles": "CCCCCc1cc(N)c2c(c1O)C(=O)c1c(O)c(CCCCC)cc(NC)c1C2=O", "note": "[Example 6b]", "values": [
      {"measurement": "Order Parameter (S)", "setting": "[1]", "value": 0.72},
      {"measurement": "Solubility", "setting": "[2]", "value": 3.3, "unit": "wt %"},
      {"measurement": "extinction coefficient", "setting": "Extinction coefficient; at 675 nm", "value": "23,785"}
    ]},
    {"smiles": "CCCCCc1cc(NC)c2c(c1O)C(=O)c1c(O)c(CCCCC)cc(NC)c1C2=O", "note": "[Example 6c]", "values": [
      {"measurement": "Order Parameter (S)", "setting": "[1]", "value": 0.66},
      {"measurement": "Solubility", "setting": "[2]", "value": 0.9, "unit": "wt %"}
    ]},
    {"smiles": "CNc1cc(CC(C)C)c(O)c2c1C(=O)c1c(NC)cc(CC(C)C)c(O)c1C2=O", "note": "[iso-propyl, Comparative Dye, TABLE III]", "values": [
      {"measurement": "Order Parameter (S)", "setting": "[1]", "value": 0.54}
    ]},
    {"smiles": "CNc1cc(CC(C)C)c(O)c2c1C(=O)c1c(N)cc(CC(C)C)c(O)c1C2=O", "note": "[iso-propyl, Comparative Dye, TABLE II]", "values": [
      {"measurement": "Order Parameter (S)", "setting": "[1]", "value": 0.63}
    ]},
    {"smiles": "CCCCCCCc1cc(N)c2c(c1O)C(=O)c1c(N)cc(CCCCCCC)c(O)c1C2=O", "note": "[n-hexyl, Comparative Dyes (Formula B), reference compound]", "values": [
      {"measurement": "Solubility", "setting": "[2]", "value": "< 0.01", "unit": "wt %"}
    ]}
  ]
}
